Laboratory results from patent US9980943B2, “Methods of treating muscular dystrophy” (BOARD OF REGENTS OF THE NEVADA SYSTEM OF HIGHER EDUCATION, …, priority 2013, dated 2018).

Assays:
Assay type in all cases: cell-based, mouse
[1] = system: α7 integrin (LacZ reporter in α7+/LacZ myotubes); experiment: Myotube α7 integrin FDG assay (Burkin assay in myotubes, 96-well); conditions: for Burkin Assay in Myotubes, value relative to DMSO: SU9516 analogs, 96-well, N=3-6
[2] = system: β-galactosidase in CMV-LacZ C2C12 myotubes; experiment: CMV-LacZ secondary screen in C2C12 myotubes (β-Gal stabilizing assay); conditions: for CMV-LACZ in Myotubes, signal relative to DMSO: C2C12 CMV-LacZ myotubes, fold relative to DMSO; for CMV-LACZ in Myotubes, value relative to DMSO: SU9516 analogs, C2C12 CMV-LacZ, N=2
In short: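 β-Gal level was the read-out, measured in a clonal C2C12 line expressing LacZ from a CMV promoter. Dose-response curves used six concentrations, 0.5 μM up to 40 μM, with duplicate points.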

[3] = system: β-galactosidase in CMV-LacZ C2C12 myoblasts; experiment: CMV-LacZ secondary screen in C2C12 myoblasts (β-Gal stabilizing assay); conditions: for CMV-LACZ in Myoblasts (β-galactosidase activity relative to DMSO): CMV-LacZ C2C12 myoblasts; for CMV-LACZ in Myoblasts, value relative to DMSO: SU9516 analogs, C2C12 CMV-LacZ, N=2
In short: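 Stable CMV-LacZ C2C12 clone; six-point curve 0.5–40 μM; duplicates.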

[4] = system: α7 integrin (LacZ reporter in α7βgal+/− myoblasts); experiment: Myoblast α7+/LacZ integrin FDG assay (Burkin assay in myoblasts, 96-well); conditions: 96-well; for Burkin Assay in Myoblasts, signal relative to DMSO: α7+/LacZ myoblasts; for Burkin Assay in Myoblasts, value relative to DMSO: SU9516 analogs, N=3-6

## Cn1c(O)c(C(C#N)=C2N=c3ccccc3=N2)c2ccccc21 [MLS000536064-01]
[1]; 0.5 uM
  Burkin Assay in Myotubes, α7 integrin LacZ reporter signal relative to DMSO: 0.9046
[1]; 1 uM
  Burkin Assay in Myotubes, α7 integrin LacZ reporter signal relative to DMSO: 0.9555
[1]; 5 uM
  Burkin Assay in Myotubes, α7 integrin LacZ reporter signal relative to DMSO: 0.9539
[1]; 10 uM
  Burkin Assay in Myotubes, α7 integrin LacZ reporter signal relative to DMSO: 1.131
[1]; 20 uM
  Burkin Assay in Myotubes, α7 integrin LacZ reporter signal relative to DMSO: 0.7642
[1]; 40 uM
  Burkin Assay in Myotubes, α7 integrin LacZ reporter signal relative to DMSO: 0.7073
[2]; 0.5 uM
  CMV-LACZ in Myotubes, signal relative to DMSO: 0.9705
[2]; 1 uM
  CMV-LACZ in Myotubes, signal relative to DMSO: 1.0389
[2]; 5 uM
  CMV-LACZ in Myotubes, signal relative to DMSO: 0.8894
[2]; 10 uM
  CMV-LACZ in Myotubes, signal relative to DMSO: 1.1027
[2]; 20 uM
  CMV-LACZ in Myotubes, signal relative to DMSO: 1.2344
[2]; 40 uM
  CMV-LACZ in Myotubes, signal relative to DMSO: 1.0233
[3]; 0.5 uM
  CMV-LACZ in Myoblasts (β-galactosidase activity relative to DMSO): 0.9105
[3]; 1 uM
  CMV-LACZ in Myoblasts (β-galactosidase activity relative to DMSO): 0.7412
[3]; 5 uM
  CMV-LACZ in Myoblasts (β-galactosidase activity relative to DMSO): 2.0402
[3]; 10 uM
  CMV-LACZ in Myoblasts (β-galactosidase activity relative to DMSO): 1.3388
[3]; 20 uM
  CMV-LACZ in Myoblasts (β-galactosidase activity relative to DMSO): 2.5396
[3]; 40 uM
  CMV-LACZ in Myoblasts (β-galactosidase activity relative to DMSO): 2.4896
[4]; 0.5 uM
  Burkin Assay in Myoblasts, signal relative to DMSO: 0.8028
[4]; 1 uM
  Burkin Assay in Myoblasts, signal relative to DMSO: 0.804
[4]; 5 uM
  Burkin Assay in Myoblasts, signal relative to DMSO: 0.7333
[4]; 10 uM
  Burkin Assay in Myoblasts, signal relative to DMSO: 1.047
[4]; 20 uM
  Burkin Assay in Myoblasts, signal relative to DMSO: 0.544
[4]; 40 uM
  Burkin Assay in Myoblasts, signal relative to DMSO: 0.4501

## Fc1ccc(-c2ccnc3nc(N4CCN(c5ccccc5)CC4)nn23)cc1 [MLS000546316-01]
[1]; 0.5 uM
  Burkin Assay in Myotubes, α7 integrin LacZ reporter signal relative to DMSO: 1.137
[1]; 1 uM
  Burkin Assay in Myotubes, α7 integrin LacZ reporter signal relative to DMSO: 1.174
[1]; 5 uM
  Burkin Assay in Myotubes, α7 integrin LacZ reporter signal relative to DMSO: 1.066
[1]; 10 uM
  Burkin Assay in Myotubes, α7 integrin LacZ reporter signal relative to DMSO: 1.099
[1]; 20 uM
  Burkin Assay in Myotubes, α7 integrin LacZ reporter signal relative to DMSO: 0.8571
[1]; 40 uM
  Burkin Assay in Myotubes, α7 integrin LacZ reporter signal relative to DMSO: 1.176
[2]; 0.5 uM
  CMV-LACZ in Myotubes, signal relative to DMSO: 1.2590
[2]; 1 uM
  CMV-LACZ in Myotubes, signal relative to DMSO: 1.0019
[2]; 5 uM
  CMV-LACZ in Myotubes, signal relative to DMSO: 1.0040
[2]; 10 uM
  CMV-LACZ in Myotubes, signal relative to DMSO: 1.0825
[2]; 20 uM
  CMV-LACZ in Myotubes, signal relative to DMSO: 1.0190
[2]; 40 uM
  CMV-LACZ in Myotubes, signal relative to DMSO: 1.2640
[3]; 0.5 uM
  CMV-LACZ in Myoblasts (β-galactosidase activity relative to DMSO): 1.0623
[3]; 1 uM
  CMV-LACZ in Myoblasts (β-galactosidase activity relative to DMSO): 1.1373
[3]; 5 uM
  CMV-LACZ in Myoblasts (β-galactosidase activity relative to DMSO): 0.8090
[3]; 10 uM
  CMV-LACZ in Myoblasts (β-galactosidase activity relative to DMSO): 1.2440
[3]; 20 uM
  CMV-LACZ in Myoblasts (β-galactosidase activity relative to DMSO): 1.3463
[3]; 40 uM
  CMV-LACZ in Myoblasts (β-galactosidase activity relative to DMSO): 1.5049
[4]; 0.5 uM
  Burkin Assay in Myoblasts, signal relative to DMSO: 1.159
[4]; 1 uM
  Burkin Assay in Myoblasts, signal relative to DMSO: 1.223
[4]; 5 uM
  Burkin Assay in Myoblasts, signal relative to DMSO: 1.164
[4]; 10 uM
  Burkin Assay in Myoblasts, signal relative to DMSO: 1.123
[4]; 20 uM
  Burkin Assay in Myoblasts, signal relative to DMSO: 1.026
[4]; 40 uM
  Burkin Assay in Myoblasts, signal relative to DMSO: 1.027

## O=C1Nc2ccccc2/C1=C\c1cccn1-c1ccc(OC(F)(F)F)cc1 [MLS000546982-01]
[1]; 0.5 uM
  Burkin Assay in Myotubes, value relative to DMSO: 1.048
[1]; 1 uM
  Burkin Assay in Myotubes, value relative to DMSO: 1.038
[1]; 5 uM
  Burkin Assay in Myotubes, value relative to DMSO: 1.145
[1]; 10 uM
  Burkin Assay in Myotubes, value relative to DMSO: 0.9962
[1]; 20 uM
  Burkin Assay in Myotubes, value relative to DMSO: 0.8556
[1]; 40 uM
  Burkin Assay in Myotubes, value relative to DMSO: 0.7111
[2]; 0.5 uM
  CMV-LACZ in Myotubes, value relative to DMSO: 1.0438
[2]; 1 uM
  CMV-LACZ in Myotubes, value relative to DMSO: 0.8467
[2]; 5 uM
  CMV-LACZ in Myotubes, value relative to DMSO: 1.0159
[2]; 10 uM
  CMV-LACZ in Myotubes, value relative to DMSO: 1.1265
[2]; 20 uM
  CMV-LACZ in Myotubes, value relative to DMSO: 1.0160
[2]; 40 uM
  CMV-LACZ in Myotubes, value relative to DMSO: 1.3290
[3]; 0.5 uM
  CMV-LACZ in Myoblasts, value relative to DMSO: 1.0877
[3]; 1 uM
  CMV-LACZ in Myoblasts, value relative to DMSO: 1.2640
[3]; 5 uM
  CMV-LACZ in Myoblasts, value relative to DMSO: 0.9273
[3]; 10 uM
  CMV-LACZ in Myoblasts, value relative to DMSO: 1.0785
[3]; 20 uM
  CMV-LACZ in Myoblasts, value relative to DMSO: 0.9512
[3]; 40 uM
  CMV-LACZ in Myoblasts, value relative to DMSO: 1.3937
[4]; 0.5 uM
  Burkin Assay in Myoblasts, value relative to DMSO: 0.8799
[4]; 1 uM
  Burkin Assay in Myoblasts, value relative to DMSO: 1.155
[4]; 5 uM
  Burkin Assay in Myoblasts, value relative to DMSO: 1.272
[4]; 10 uM
  Burkin Assay in Myoblasts, value relative to DMSO: 1.078
[4]; 20 uM
  Burkin Assay in Myoblasts, value relative to DMSO: 1.053
[4]; 40 uM
  Burkin Assay in Myoblasts, value relative to DMSO: 0.8883
